The source of these data is patent US8957129B2, “Aqueous coatings and paints incorporating one or more antimicrobial biosurfactants and methods for using same” (priority 2012, dated 2015).

Converted amounts (≈) assume the structure as drawn. Like-named read-outs stand apart in the source and are kept apart here. Where only a bound is given, the exact number is not on record here.

The subject of one experiment is Aspergillus niger. The experiment in a line: MIC determination in broth media, two fold dilution, microtiter plates. It is filed as cell-based.
Another experiment relates to Candida albicans. The experiment is described as above. The note with it: read-out: Minimum Inhibitory Concentration (MIC), alone (QA/QB). It is filed as cell-based.
The test system of the next experiment is S. aureus. The experiment is described as above. Type of experiment: cell-based. The note with it: Staphylococcus aureus, read-out: Minimum Inhibitory Concentration (MIC), alone (QA/QB).
The test system of the next experiment is fungi. The experiment in a line: Challenge test of combinations of Rhamnolipids with Isothiazolinones in flat paint. It is filed as cell-based. To be noted: levels: RL 250 ppm, CMIT/MIT 5 ppm, MIT 25 ppm, BIT 50 ppm. The method, then:
(§1) A second batch of flat paint formulation was prepared without any surfactants. Then Rhamnolipids (RL) were post-added to this formulation. The formulation was then subjected to an initial screen challenge test using 250 to 2000 ppm RL with mixed populations of E. coli and Pseudomonas aeruginosa.
(§2) Using the same paints, a biocide at lower use level was combined with Rhamnolipid (RL) at a minimum use of 250 ppm.

The next experiment deals with bacteria. The experiment is described as above. Type of experiment: cell-based. The note with it: levels: RL 250 ppm, CMIT/MIT 5 ppm, MIT 25 ppm, BIT 50 ppm. The method, then: as §1, §2
The next experiment deals with E. coli. The experiment can be described thus: MIC determination in broth media, two fold dilution, microtiter plates. It is filed as cell-based. To be noted: Escherichia coli, read-out: Minimum Inhibitory Concentration (MIC), alone (QA/QB), E. coli, substance alone.
For a further experiment, the system named is P. aeruginosa. The experiment is described as above. Type of experiment: cell-based, Pseudomonas aeruginosa. The note with it: for MIC: Pseudomonas aeruginosa.
For the next experiment, the system named is B. cepacia. The description is as above. It is filed as cell-based, Burkhlderia cepacia. To be noted: for MIC: Burkholderia cepacia, read-out: Minimum Inhibitory Concentration (MIC), alone (QA/QB).
Another experiment has as its system Bacillus cereus. Described as above. The note with it: read-out: Minimum Inhibitory Concentration (MIC), alone (QA/QB). It is filed as cell-based.
[1] abbreviates: B. cepacia, substance alone, broth.

For `Cn1sccc1=O` [MIT, Methyl Isothiazolinone], the MIC is more than 100 µg/mL in the experiment with Aspergillus niger (read-out: Minimum Inhibitory Concentration (MIC), alone (QA/QB), Aspergillus niger, substance alone); 100 µg/mL (≈ 868 µM) in the experiment with Candida albicans; 25 µg/mL (≈ 217 µM) with S. aureus; approximately 25 µg/mL (≈ 217 µM) in the experiment with E. coli; 12.5 µg/mL (≈ 109 µM) in the experiment on P. aeruginosa (read-out: Minimum Inhibitory Concentration (MIC), alone (QA/QB), P. aeruginosa, substance alone); 25 µg/mL (≈ 217 µM) with B. cepacia. The MIC with Bacillus cereus worked out at 25 µg/mL (≈ 217 µM). For the same compound, the “Minimum Inhibitory Concentration (MIC), alone (QA/QB)” value with Aspergillus niger (substance alone) turned out to be 100 ppm; in the experiment on P. aeruginosa (P. aeruginosa, substance alone) it was 25 ppm. In addition, in the experiment on fungi, the “Day 1 Fungi growth” value was “+”. Besides, the “Day 2 Fungi growth” value in the experiment with fungi is “+”. Also, the “Day 5 Fungi growth” value in the experiment with fungi was “−”. Also, in the experiment with bacteria, the “Day 1 Bacteria growth” value was “−”. The “Day 2 Bacteria growth” value in the experiment on bacteria is “−”. Also, the “Day 5 Bacteria growth” value in the experiment with bacteria is “−”.
`O=c1[nH]sc2ccccc12` [BIT, Benz Isothiazolinone]: the MIC in the experiment on Aspergillus niger (substance alone, read-out: Minimum Inhibitory Concentration (MIC), alone (QA/QB)) was 50 µg/mL (≈ 331 µM); in the experiment on Candida albicans (substance alone, broth), 25 µg/mL (≈ 165 µM); in the experiment on S. aureus (S. aureus, substance alone, broth), 25 µg/mL (≈ 165 µM); in the experiment with P. aeruginosa (P. aeruginosa, substance alone, read-out: Minimum Inhibitory Concentration (MIC), alone (QA/QB)), 25 µg/mL (≈ 165 µM); in the experiment with B. cepacia (setting [1]) it was 50 µg/mL (≈ 331 µM); with Bacillus cereus (substance alone, broth) it was 25 µg/mL (≈ 165 µM). For the same compound, in the experiment on fungi, the “Day 1 Fungi growth” value is “+”. The “Day 2 Fungi growth” value in the experiment on fungi is “+”. In addition, in the experiment on fungi, the “Day 5 Fungi growth” value was “+”. Moreover, in the experiment on bacteria, the “Day 1 Bacteria growth” value is “−”. For the same compound, the “Day 2 Bacteria growth” value in the experiment with bacteria is on record as “−”. The “Day 5 Bacteria growth” value in the experiment on bacteria is “−”. Further, the “Minimum Inhibitory Concentration (MIC), alone (QA/QB)” value in the experiment on B. cepacia (setting [1]) is 25 ppm.
